In patent US7964629B2, “Inhibitors of isoprenylcysteine carboxyl methyltransferase” (Duke Universtiy, priority 2005, dated 2011):

Key:
FTase = FTase (Homo sapiens, UniProt P49354+P49356); experiment: FTase inhibition (results not shown); assay type: biochemical; settings: concentrations up to 50 μM
[1] = test system: Icmt−/− mouse embryonic fibroblasts; experiment: Cell growth determination, Icmt-deficient fibroblasts; assay type: cell-based; settings: 15, 20, 30 μM; 10% serum; six days
Procedure: FIGS. 2A-2C. […] Media and drug were replaced daily, and cell growth was monitored for six days. Data represent the mean and standard deviation of four replicate wells. (FIG. 2A) Icmt^+/+ cells; (FIG. 2B) Icmt^−/− cells; (C) Icmt^−/− cells stably transfected with a gene expressing human ICMT (Icmt^−/−/ICMT cells).
Cell growth assays were performed in a 96-well plate format. Briefly, 500 to 1000 cells were plated into 96-well plates. After the cells were allowed to attach for 24 h, media was removed and replaced with media containing either compound or vehicle. Media and drug were replaced every 24 h throughout the assay. Cell determinations were made at the times indicated in the respective figure by adding 19 μl of CellTiter 96 AqueousOne solution to each well followed by incubation of the plates in the dark at 37° C. for two hr after which the absorbance at 490 nm was read. Background absorbance from blank wells containing only media with compound or vehicle was subtracted from each test well. Typically, 3-6 replicate wells were employed for each point in each assay.

[2] = test system: GFP-tagged K-Ras in MDCK cells; experiment: Localization of GFP-K-Ras in MDCK cells; assay type: cell-based; settings: 10, 20, 30 μM; 72 h
Procedure: (§1) FIGS. 3A and 3B. Impact of cysmethynil treatment on Ras localization and signaling. FIG. 3A. Mislocalization of GFP Ras in cysmethynil treated cells. […] Live cells were imaged on a spinning disk confocal microscope. FIG. 3B. Impact of cysmethynil treatment on EGF-stimulated protein phosphorylation. […] Where indicated, cells were treated with EGF for the final 10 min prior to harvesting. Cell lysates containing equal amounts of protein were resolved on a 13% SDS-polyacrylamide gel and probed with antiphospho-Akt, antiphospho-p42/44 MAPK or anti-β-tubulin antibody as indicated. MDCK cells stably expressing GFP-H-Ras, GFP-K-Ras or GFP-N-Ras were grown on 35 mm coverslip dishes (MatTek Corporation, Ashland, Mass.) treated with poly-D-lysine. MDCK cells expressing […] were prepared by transient transfection of the Yes-GFP construct (McCabe and Berthiaume, Mol Cell Biol 10:3771-3786 (1999)) using Superfect reagent (Quiagen, Valencia, Calif.) following the manufacturer's instructions. […] Cells were imaged 72 h after drug treatment (24 h for transiently transfected cells) on an Olympus IX70 inverted microscope (Melville, N.Y.) with an UltraView spinning-disk confocal (PerkinElmer LAS, Wellesley, Mass.) and a Krypton/Argon laser, 488 nm line, attached to a cooled-CCD camera (Hamamatsu, Bridgewater, N.J.). […]

Yes-GFP in MDCK cells = experiment: Localization of Yes-GFP in MDCK cells (control); assay type: cell-based; settings: 10, 20, 30 μM
Procedure: as §1

[3] = test system: p42/44 MAPK phosphorylation in DKOB8 cells expressing GFP-Icmt; experiment: EGF-stimulated MAPK activation in Icmt-overexpressing cells; assay type: cell-based; settings: 5 μM, three days, reduced-serum media; Icmt activity elevated 4-fold
Procedure: FIGS. 4A-4C. Overexpression of Icmt rescues EGF-stimulated MAPK activation and anchorage-independent growth in cysmethynil-treated cells. FIG. 4A. Creation of cell lines stably overexpressing Icmt. DKOB8 cells were engineered to stably express either GFP alone or a GFP-Icmt fusion protein. Membrane fractions from GFP and GFP-ICMT expressing lines were assayed for Icmt activity using the BFC assay. FIG. 4B. Overexpression of Icmt restores EGF-stimulated MAPK activation in cysmethynil-treated cells. […] Where indicated, cells were treated with EGF for the final 10 min prior to harvesting. Cell lysates containing equal amounts of protein were resolved on a 13% SDS-polyacrylamide gel and probed with antiphospho-p42/44 MAPK or, as a control, antiphospho NFκB antibody as indicated. FIG. 4C. […] After 3 weeks of growth, colonies were stained with MTT and imaged.
Half of the wells were then treated with EGF (10 ng/ml) and half with vehicle for 10 min. Cells were rinsed with PBS and harvested in SDS-PAGE loading buffer. Total cell lysates (30 μg protein) were resolved on 4-20% Tris-glycine polyacrylamide gels (Invitrogen). Proteins were transferred to nitrocellulose and probed with a mix of anti-phospho-Akt and anti-phospho-p42/44 MAPK antibodies, or with anti-tubulin or anti-phospho NFκB antibody (Cell Signaling Technology) as indicated. […]

[4] = test system: RhoA in MDA-MB-231 breast cancer cells; experiment: Immunoblot of steady-state Rho level; assay type: cell-based; settings: 20 μM, 6 day treatment
Procedure: (§2) The impact of Icmt inhibition on function of the geranylgeranylated GTPases Rho and Rac in cells has been examined. This study was carried out in MD-MBA-231 breast cancer cells. Tumorigenesis and metastatic behavior of these cells is dependent on high levels of Rho GTPases in particular. […] Cells were harvested and lysates containing equal amounts of protein were resolved by SDS-PAGE and subjected to immunoblot analysis with specific antibodies to RhoA (FIG. 7A), or Rac1 (FIG. 7B). As a control, immunoblot analysis for α-tubulin was carried out on all samples.

[5] = test system: α-tubulin in MDA-MB-231 breast cancer cells; experiment: Immunoblot of control protein α-tubulin; assay type: cell-based; settings: 20 μM, 6 day treatment
Procedure: as §2

CCCCCCCCn1cc(CC(N)=O)c2cc(-c3cccc(C)c3)ccc21 [cysmethynil, 2-[5-(3-methylphenyl)-1-octyl-1H-indol-3-yl]acetamide]
inhibition of FTase (FTase): did not inhibit
cell growth [1]: largely unaffected
localization of GFP-K-Ras [2]: dose-dependent mislocalization
plasma membrane localization of Yes-GFP (Yes-GFP in MDCK cells): did not affect
blockade of EGF-stimulated MAPK activation [3]: protect the cells from cysmethynil blockade
Rho levels [4]: almost undetectable
level of control protein α-tubulin [5]: only marginally affected
